Test results reported in PubChem BioAssay (NCI).
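Growth conditions: 96-well plates. Treatment: test compound, 48 hours, 5 concentrations. Analysis: linear interpolation between bracketing concentrations; unreached endpoints set to highest concentration. TGI denotes the concentration required for complete inhibition of growth.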

Columns and labels:
Experiment in all cases: NCI tumour cell line growth inhibition, 48 h
[1] = system: 786-0 renal
[2] = system: A498 renal
[3] = system: A549 NSCLC
[4] = system: ACHN renal
[5] = system: BT-549 breast
[6] = system: CAKI-1 renal
[7] = system: CCRF-CEM leukemia
[8] = system: COLO 205 colon
[9] = system: DU-145 prostate
[10] = system: EKVX NSCLC
[11] = system: HCC-2998 colon
[12] = system: HCT-116 colon
[13] = system: HCT-15 colon
[14] = system: HL-60(TB) leukemia
[15] = system: HOP-62 NSCLC
[16] = system: HOP-92 NSCLC
[17] = system: HS 578T breast
[18] = system: HT29 colon
[19] = system: IGROV1 ovarian
[20] = system: K-562 leukemia
[21] = system: KM12 colon
[22] = system: LOX IMVI melanoma
[23] = system: M14 melanoma
[24] = system: MCF7 breast
[25] = system: MDA-MB-231 breast
[26] = system: MDA-MB-435
[27] = system: MDA-N
[28] = system: MOLT-4 leukemia
[29] = system: NCI-H226 lung
[30] = system: NCI-H23 lung
[31] = system: NCI-H522 lung
[32] = system: NCI/ADR-RES ovarian
[33] = system: OVCAR-3 ovarian
[34] = system: OVCAR-4 ovarian
[35] = system: OVCAR-5 ovarian
[36] = system: OVCAR-8 ovarian
[37] = system: PC-3 prostate
[38] = system: RPMI-8226 leukemia
[39] = system: SF-268 CNS
[40] = system: SF-295 CNS
[41] = system: SF-539 CNS
[42] = system: SK-MEL-2 melanoma
[43] = system: SK-MEL-28 melanoma
[44] = system: SK-MEL-5 melanoma
[45] = system: SK-OV-3 ovarian
[46] = system: SN12C renal
[47] = system: SNB-19 CNS
[48] = system: SNB-75 CNS
[49] = system: SR leukemia
[50] = system: SW-620 colon
[51] = system: T-47D breast
[52] = system: TK-10 renal
[53] = system: U251 CNS
[54] = system: UACC-257 melanoma
[55] = system: UACC-62 melanoma
[56] = system: UO-31 renal
[57] = system: NCI-H460 lung
[58] = system: RXF 393 renal

Measured: TGI

C/C=C(/C)C(=O)O[C@H]1CCN2CC=C(COC(=O)[C@@](O)([C@H](C)OC)C(C)(C)O)[C@H]12
not listed: [57] | [58]
> 100 µM: all other assays above

Cn1c(=O)c2c(nc3n(Cc4ccccc4)c(=O)c(Br)cn23)n(C)c1=O
not listed: [45]
> 100 µM: all other assays above
